Measured values: patent US20250289789A1, “REVERSIBLE LYSINE COVALENT MODIFIERS OF CDK2 AND USES THEREOF” (Terremoto Biosciences, Inc., priority 2023, published 2025)
Where “and” joins values, the source holds several entries; their conditions need not be identical. Equal entries are not always repeated. Entries after “also recorded” stand apart in the source; their conditions may differ. Where two headings read alike, the source gives them in different places.

Experiments:
[1] = test system: Phospho-Rb Ser807/811 in OVCAR3 cells; assay: OVCAR3 Phospho-Rb Ser807/811 HTRF assay; type: cell-based; settings: Homo sapiens, OVCAR-3, 1 h, read-out: pRb-OVCAR3 IC50
Description: Cells were trypsinized and resuspended in 1 mM hydroxyurea (Sigma; H8627), 90% RPMI and 10% fetal bovine serum. […] Dose response curve normalized to DMSO control was plotted using four-parameter logistic model for IC50 calculation.

pCDK2-CCNE1 proteins = pCDK2-CCNE1 proteins (Homo sapiens, UniProt P24941); assay: Identification of covalent binding by intact mass spectrometry, with and without competitor PF-06873600; settings: for Observed mass value of the covalent complex between compound and CDK2 protein: intact mass spectrometry after borohydride reduction, unmodified CDK2 34096-34097 Da; for Covalent complex formation with CDK2 protein (intact mass spectra after sodium borohydride reduction) / Binding pocket by competition: complex formation in presence of molar excess PF-06873600: pCDK2-CCNE1 1 μM, compound 1.5 μM; for Covalent complex formation with CDK2 protein (intact mass spectra after sodium borohydride reduction): 1 hour at room temperature or 37° C., no competitor; for Binding pocket by competition: complex formation in presence of molar excess PF-06873600: competitor PF-06873600 20 μM
Description: pCDK2-CCNE1 proteins (1 μM) were treated with a compound (1.5 μM) from Table 4 for 1 hour at room temperature or 37° C., with and without competitor molecule PF-06873600 (20 μM final concentration) as a specificity control. As used herein, the competitor molecule is
As used herein, the competitor molecule is 6-(difluoromethyl)-8-((1R,2R)-2-hydroxy-2-methylcyclopentyl)-2-((1-(methylsulfonyl)piperidin-4-yl)amino)pyrido[2,3-d]pyrimidin-7(8H)-one (PF-06873600). Reversible imines were captured by reductive amination with the addition of 5 mM sodium borohydride at room temperature for 5 min. Reduction reactions were quenched by diluting the sample in equal volume of 1% trifluoroacetic acid (v/v) in acetonitrile, then analyzed by LC-MS. Deconvoluted monoisotopic intensities of unmodified and compound-modified mass peaks were compared.
FIGS. 1A to 1P provide intact mass spectra for pCDK2-CCNE1 proteins after incubation with compounds of the present disclosure and subsequent sodium borohydride reduction. […] Further, FIGS. 1A to 1P each provide intact mass spectra following the incubation of pCDK2-CCNE1 proteins with a compound of the present disclosure both in the absence of a competitor molecule (i.e., PF-06873600, a molecule known to bind to and inhibit the function of CDK2); and in the presence of a significant stoichiometric excess of a competitor molecule PF-06873600.
FIGS. 2A to 2N provide intact mass spectra for pCDK2-CCNE1 proteins after incubation with compounds of the present disclosure and subsequent sodium borohydride reduction.

[2] = biological target: T1, CDK1-NanoLuc fusion with CCNB1 in 293T or 293 cells (Homo sapiens, UniProt P06493); assay: NanoBRET Target Engagement (TE) Intracellular Kinase Assay, CDK1/CCNB1; type: cell-based; settings: NanoBRET TE intracellular kinase assay, 2-hour incubation, read-out: NanoBRET-CDK1/B1 IC50
T1 construct: host or cells: 293T (ATCC CRL-3216) or 293 (ATCC CRL-1573)
T1 sequence (P06493 whole entry, the tested form may be a part): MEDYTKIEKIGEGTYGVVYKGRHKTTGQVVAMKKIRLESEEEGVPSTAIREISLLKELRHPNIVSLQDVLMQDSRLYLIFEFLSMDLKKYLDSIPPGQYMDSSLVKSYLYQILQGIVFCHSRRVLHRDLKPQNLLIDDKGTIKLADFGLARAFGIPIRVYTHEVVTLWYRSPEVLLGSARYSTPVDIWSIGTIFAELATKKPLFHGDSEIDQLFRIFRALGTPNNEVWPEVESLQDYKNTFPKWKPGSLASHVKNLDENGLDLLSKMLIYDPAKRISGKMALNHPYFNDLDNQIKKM
T1 sequence (P14635 whole entry partner, the tested form may be a part): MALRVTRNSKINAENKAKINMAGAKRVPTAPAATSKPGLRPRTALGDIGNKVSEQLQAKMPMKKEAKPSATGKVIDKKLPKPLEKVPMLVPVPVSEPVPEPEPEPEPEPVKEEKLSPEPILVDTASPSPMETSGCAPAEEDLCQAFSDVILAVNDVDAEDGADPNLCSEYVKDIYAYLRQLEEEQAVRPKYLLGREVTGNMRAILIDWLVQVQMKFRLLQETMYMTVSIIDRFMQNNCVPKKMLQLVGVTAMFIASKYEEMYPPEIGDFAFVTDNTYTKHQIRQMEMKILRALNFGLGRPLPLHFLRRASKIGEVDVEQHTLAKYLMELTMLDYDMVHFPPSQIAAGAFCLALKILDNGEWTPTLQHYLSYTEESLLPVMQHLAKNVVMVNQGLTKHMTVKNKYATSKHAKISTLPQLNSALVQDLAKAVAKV
Summary of the method: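 293T or 293 cells co-transfected with CDK1-NanoLuc and CCNB1 vectors, incubated 24 h, then exposed to NanoBRET Tracer K-10 plus compound for 2 h at 37° C. BRET ratio (610/450 nm) normalized to DMSO; IC50 from four-parameter logistic fit.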

[3] = biological target: T2, CDK4-NanoLuc fusion with CCND1 in 293T or 293 cells (Homo sapiens, UniProt P11802); assay: NanoBRET Target Engagement (TE) Intracellular Kinase Assay, CDK4/CCND1; type: cell-based; settings: NanoBRET TE intracellular kinase assay, 2-hour incubation, read-out: NanoBRET-CDK4/D1 IC50
T2 construct: host or cells: 293T (ATCC CRL-3216) or 293 (ATCC CRL-1573)
T2 sequence (P11802 whole entry, the tested form may be a part): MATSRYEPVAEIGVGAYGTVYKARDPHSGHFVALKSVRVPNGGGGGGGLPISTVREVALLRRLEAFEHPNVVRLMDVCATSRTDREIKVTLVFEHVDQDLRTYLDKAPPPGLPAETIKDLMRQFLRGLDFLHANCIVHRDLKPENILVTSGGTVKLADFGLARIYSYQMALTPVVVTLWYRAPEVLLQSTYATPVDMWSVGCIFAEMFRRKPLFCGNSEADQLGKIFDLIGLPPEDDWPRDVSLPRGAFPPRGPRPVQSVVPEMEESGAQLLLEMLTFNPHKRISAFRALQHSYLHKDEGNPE
T2 sequence (P24385 whole entry partner, the tested form may be a part): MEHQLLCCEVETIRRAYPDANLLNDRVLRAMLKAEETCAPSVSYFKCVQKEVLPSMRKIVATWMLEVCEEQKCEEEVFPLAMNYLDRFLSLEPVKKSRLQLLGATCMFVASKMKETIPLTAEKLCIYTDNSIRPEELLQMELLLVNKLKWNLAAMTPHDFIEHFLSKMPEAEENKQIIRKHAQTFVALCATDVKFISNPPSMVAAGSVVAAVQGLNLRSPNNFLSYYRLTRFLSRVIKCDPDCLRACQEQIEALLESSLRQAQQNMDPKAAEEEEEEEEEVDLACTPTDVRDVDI

[4] = biological target: T3, CDK2-NanoLuc fusion with CCNE1 in 293T or 293 cells (Homo sapiens, UniProt P24941); assay: NanoBRET Target Engagement (TE) Intracellular Kinase Assay, CDK2/CCNE1; type: cell-based; settings: 2-hour incubation
T3 construct: host or cells: 293T (ATCC CRL-3216) or 293 (ATCC CRL-1573)

[5] = OVCAR3 cells, Phospho-Rb Ser807/811 HTRF, 1 hour incubation
[6] = NanoBRET TE intracellular kinase assay, read-out: NanoBRET-CDK2/E1 IC50
[7] = NanoBRET-CDK2/E1 IC50, NanoBRET TE intracellular kinase assay

SMILES | IC50 [1, 5] | Observed mass value of the covalent complex between compound and CDK2 protein (pCDK2-CCNE1 proteins) | IC50 [2] | IC50 [3] | IC50 [4, 6] | Covalent complex formation with CDK2 protein (intact mass spectra after sodium borohydride reduction) (pCDK2-CCNE1 proteins) | Observed mass value of the covalent complex between compound and CDK2 protein (pCDK2-CCNE1 proteins; 2,2,2-trifluoroacetate) | IC50 [1] | Covalent complex formation with CDK2 protein (intact mass spectra after sodium borohydride reduction) (pCDK2-CCNE1 proteins; trifluoroacetic acid) | Binding pocket by competition: complex formation in presence of molar excess PF-06873600 (pCDK2-CCNE1 proteins) | IC50 [4, 7]
CC(C)NC(=O)O[C@@H]1CC[C@H](c2cc(NC(=O)c3ccnc(Oc4cccc(O)c4C=O)c3)n[nH]2)C1 [Compound 69, (1R,3S)-3-{5-[2-(2-formyl-3-hydroxyphenoxy)pyridine-4-amido]-2H-pyrazol-3-yl}cyclopentyl N-isopropylcarbamate; trifluoroacetic acid] | – | 34574 Da | 79 nM | 1950 nM | – | – | – | 730 nM | formed a covalent complex with CDK2 protein; also recorded: resulted in covalent complex formation | bound to the same binding pocket of CDK2 as the competitor molecule PF-06873600 | 1.92 nM
C#Cc1cccc(-c2cc(C(=O)Nc3cc([C@H]4CC[C@@H](OC(=O)NC(C)C)C4)[nH]n3)n(C)n2)c1C=O [Compound 52, (1R,3S)-3-(3-(3-(3-ethynyl-2-formylphenyl)-1-methyl-1H-pyrazole-5-carboxamido)-1H-pyrazol-5-yl)cyclopentyl isopropylcarbamate] | 2430 nM | – | 383 nM | 543 nM | 21.7 nM | resulted in covalent complex formation | – | – | – | – | –
CC(C)NC(=O)O[C@@H]1CC[C@H](c2cc(NC(=O)COc3cccc(O)c3C=O)n[nH]2)C1 [Compound 11, (1R,3S)-3-{5-[2-(2-formyl-3-hydroxyphenoxy)acetamido]-2H-pyrazol-3-yl}cyclopentyl N-isopropylcarbamate] | 102 nM | 34511 Da | 17.3 nM | > 9900 nM | 3.72 nM | formed a covalent complex with CDK2 protein; also recorded: resulted in covalent complex formation | – | – | – | bound to the same binding pocket of CDK2 as the competitor molecule PF-06873600 | –
C#Cc1cccc(OCC(=O)Nc2cc([C@H]3CC[C@@H](OC(=O)NC(C)C)C3)[nH]n2)c1C=O [Compound 51, (1R,3S)-3-(3-(2-(3-ethynyl-2-formylphenoxy)acetamido)-1H-pyrazol-5-yl)cyclopentyl isopropylcarbamate] | 1150 nM | 34519 Da | 354 nM | 4100 nM | 7.58 nM | formed a covalent complex with CDK2 protein | – | – | – | bound to the same binding pocket of CDK2 as the competitor molecule PF-06873600 | –
CC(C)NC(=O)O[C@@H]1CC[C@H](c2cc(NC(=O)c3cc(-c4c(F)ccc(O)c4C=O)nn3C)n[nH]2)C1 [Compound 45, (1R,3S)-3-(3-(3-(6-fluoro-2-formyl-3-hydroxyphenyl)-1-methyl-1H-pyrazole-5-carboxamido)-1H-pyrazol-5-yl)cyclopentyl isopropylcarbamate] | 114 nM | 34579 Da | 6.81 nM | 1580 nM | – | – | – | – | – | – | 2.8 nM
COc1cc(O)c(C=O)c(CCC(=O)Nc2cc([C@H]3CC[C@@H](OC(=O)NC(C)C)C3)[nH]n2)c1 [Compound 22, (1R,3S)-3-(3-(3-(2-formyl-3-hydroxy-5-methoxyphenyl)propanamido)-1H-pyrazol-5-yl)cyclopentyl isopropylcarbamate 2,2,2-trifluoroacetate] | 200 nM | – | 100 nM | 3690 nM | 4.81 nM | formed a covalent complex with CDK2 protein | 34538-34539 Da and 34539 Da | – | – | bound to the same binding pocket of CDK2 as the competitor molecule PF-06873600 | –
CC(C)NC(=O)O[C@@H]1CC[C@H](c2cc(NC(=O)[C@@H](C)Oc3cccc(O)c3C=O)n[nH]2)C1 [Compound 32, (1R,3S)-3-{5-[(2R)-2-(2-formyl-3-hydroxyphenoxy)propanamido]-2H-pyrazol-3-yl}cyclopentyl N-isopropylcarbamate] | 352 nM | 34525 Da | 52 nM | 4920 nM | 4.66 nM | formed a covalent complex with CDK2 protein | – | – | – | bound to the same binding pocket of CDK2 as the competitor molecule PF-06873600 | –
CC(=O)Nc1cccc(OCC(=O)Nc2cc([C@H]3CC[C@@H](OC(=O)NC(C)C)C3)[nH]n2)c1C=O [Compound 46, (1R,3S)-3-{5-[2-(3-acetamido-2-formylphenoxy)acetamido]-2H-pyrazol-3-yl}cyclopentyl N-isopropylcarbamate] | 2410 nM | – | 692 nM | 4170 nM | 20.6 nM | resulted in covalent complex formation | – | – | – | – | –

Further lines, with some results ahead:

IC50 [1, 5] | Observed mass value of the covalent complex between compound and CDK2 protein (pCDK2-CCNE1 proteins) | IC50 [2] | IC50 [3] | IC50 [4, 6] | Covalent complex formation with CDK2 protein (intact mass spectra after sodium borohydride reduction) (pCDK2-CCNE1 proteins) | Observed mass value of the covalent complex between compound and CDK2 protein (pCDK2-CCNE1 proteins; 2,2,2-trifluoroacetate) | SMILES | IC50 [1] | Covalent complex formation with CDK2 protein (intact mass spectra after sodium borohydride reduction) (pCDK2-CCNE1 proteins; trifluoroacetic acid) | Binding pocket by competition: complex formation in presence of molar excess PF-06873600 (pCDK2-CCNE1 proteins) | IC50 [4, 7]
361 nM | – | 71.6 nM | 361 nM | 11.3 nM | resulted in covalent complex formation | – | CC(C)NC(=O)O[C@@H]1CC[C@H](c2cc(NC(=O)Nc3ccc(O)c(C=O)c3)n[nH]2)C1 [Compound 33, (1R,3S)-3-(5-{[(3-formyl-4-hydroxyphenyl)carbamoyl]amino}-2H-pyrazol-3-yl)cyclopentyl N-isopropylcarbamate] | – | – | – | –
161 nM | 34588 Da | 70.2 nM | > 10000 nM | 24.5 nM | – | – | CC(C)NC(=O)O[C@@H]1CC[C@H](c2cc(NC(=O)COc3cccc(NS(C)(=O)=O)c3C=O)n[nH]2)C1 [Compound 49, (1R,3S)-3-{5-[2-(2-formyl-3-methanesulfonamidophenoxy)acetamido]-2H-pyrazol-3-yl}cyclopentyl N-isopropyl carbamate] | – | – | – | –
44.7 nM | 34550 Da | 11.3 nM | 1280 nM | 2.27 nM | resulted in covalent complex formation | – | COc1cc(O)c(C=O)c([C@@H]2C[C@H]2C(=O)Nc2cc([C@H]3CC[C@@H](OC(=O)NC(C)C)C3)[nH]n2)c1 (mixture of isomers) [Compound 89, (1R,3S)-3-{5-[trans-2-(2-formyl-3-hydroxy-5-methoxyphenyl)cyclopropaneamido]-2H-pyrazol-3-yl}cyclopentyl N-isopropylcarbamate] | – | – | – | –
33.2 nM | 34539 Da | 9.52 nM | > 6430 nM | 2.76 nM | resulted in covalent complex formation | – | COc1cc(O)c(C=O)c(OCC(=O)Nc2cc([C@H]3CC[C@@H](OC(=O)NC(C)C)C3)[nH]n2)c1 [Compound 64, (1R,3S)-3-{5-[2-(2-formyl-3-hydroxy-5-methoxyphenoxy)acetamido]-2H-pyrazol-3-yl}cyclopentyl N-isopropylcarbamate] | – | – | – | –
